Literature values in patent US12223643B2, “Machine-learning system for diagnosing disorders and diseases and determining drug responsiveness” (Sanford Burnham Prebys Medical Discovery Institute, priority 2019, dated 2025).

System: bipolar disorder (BPD) patients

O=C([O-])[O-].[Li+].[Li+] [Lithium carbonate]
patients respond to lithium treatment: approximately 35%
risk of suicide: reduce the risk of suicide
